Reference: publication PMC4032624 (Molecular cell, 2013)

Key:
γH2Ax = γH2Ax level by Western blot in U2OS cells; type: cell-based; conditions: UNC0638 with etoposide
G9a/GLC = assay: H3K9me2 level in U2OS cells; type: cell-based; conditions: incubation with inhibitor vs solvent DMSO
pT2609 and γH2Ax foci = assay: Confocal immunofluorescence of pT2609-DNA-PKcs and γH2Ax foci in U2OS cells; conditions: UNC0638 together with ETO, Pearson correlation coefficient, n=5

`COc1cc2c(NC3CCN(C(C)C)CC3)nc(C3CCCCC3)nc2cc1OCCCN1CCCC1` [UNC0638] was tested, and the “effect on etoposide-induced γH2Ax pattern” value (γH2Ax) was “not affected”, the H3K9me2 level (G9a/GLC) was “decreased” and the “colocalization pattern of γH2Ax and pT2609 foci” value (pT2609 and γH2Ax foci) was “did not significantly alter”.
